Source: patent US10800766B2, “Quinoline alkenes as cytoprotective agents” (priority 2015, dated 2020)

Legend:
Human SH-SY5Y cells = test: Cell rescue assay: protection against β-amyloid-induced cell toxicity; type: cell-based; conditions: 7.5 uM compound, AB1-42 at 10 uM, 4 days, OD at 490 nm
Experimental: Protection against β-amyloid-induced cell toxicity. Chonpathompikunlert et al. Eu. J. Pharmacol. 2011, 650, 544-549. Human SH-SY5Y cells are suspended in media containing 2% FBS and 2× Gentamicin. Transfer 100 ul/well culture to 96-well plate (20,000 cells/well; passage #5) and incubate overnight. Prepare compound samples at 30 uM. Add 50 ul of the samples to the cells [[…]] and incubate 3 hours. Make stock of 40 uM AB1-42 peptide in assay media. Transfer 50 ul/well to cells/compounds in assay plate. The final assay volume is 200 ul/well, containing 2% FBS, 2× Gentamicin, 7.5 uM compound and AB1-42 at 10 uM. Incubate for 4 days then add 20 ul of Promega Substrate Cell Titer 96 Aqueous One Solution Reagent to each well. Incubate 37° C. and read OD at 490 nm. The results are summarized in Table 3, where A represents a value greater than 50% cell rescue, B represents a value greater than 10% and less than 50% cell rescue, and C represents a value greater than 1% and less than 10% cell rescue.

Ob/ob mice = test: Effect of a SERCA agonist on the level of blood glucose; type: in vivo, mouse; conditions: 50 mg/kg i.p. once a day for 5 days, fasting glucose at baseline and 4 days after administration
Experimental: Ob/ob mice (10 weeks old, n=7) were intraperitoneally (i.p.) injected with 100 μL of a solution containing 0 (vehicle) or 50 mg/kg of a test compound once a day for a total of 5 days. Fasting glucose was measured at baseline and 4 days after the administration of the test compound. Glucose levels were measured in blood samples drawn from the tail vein using a handheld glucose sensor. Compound effects on blood glucose are shown in Table 5 where A represents a 10-20% reduction in blood glucose, B represents a 21-30% reduction in blood glucose, and C represents a greater than 30% reduction in blood glucose levels.

CSM14.1 neuronal cells = test: Cell survival assay (thapsigargin-induced cell death, CELLTITER-GLO luminescence); type: cell-based; conditions: CSM14.1 cells, compound 2 hrs before about 15 μM thapsigargin, overnight (about 16 to 24 hrs), cell viability
Experimental: CSM14.1 neuronal cells were maintained in Complete Medium at 32° C.; wherein the Complete Medium contained Dulbecco's modified eagle medium (DMEM) with 10% fetal bovine serum (FSB), 1% L-glutamine, 100 IU/mL penicillin, and 100 μg/mL streptomycin. The cells were recovered from cultures by trypsinization and then seeded in 384 well plates (Greiner #781098) at a concentration of 1,000 cells/well in 20 μL of DMEM Assay Medium, wherein the DMEM Assay Medium contained 2% FBS, 100 IU/mL penicillin, and 100 μg/mL streptomycin. Seeding was performed using a MultiDrop Combi reagent broadcaster. The plates were incubated overnight at 32° C. A test compound was prepared by 2-fold serial dilution in 100% DMSO using a BIOMEK® 2000 liquid handler (Beckman Coulter). A dose-response curve containing 10 concentrations of the test compound was obtained. Using a BIOMEK® FX liquid handler (Beckman Coulter), 2.5 μL of the test compound was transferred from the 100% DMSO serial dilution plate to an intermediate plate containing 47.5 μL of DMEM Assay Medium containing 2% FBS, 100 IU/mL penicillin, and 100 μg/mL streptomycin and mixed. To reduce or eliminate the interference from the compound's precipitation, 6 μL of the diluted compound was immediately transferred to the assay plate to achieve a high compound concentration of 100 μM in 99% DMEM Assay Medium and 1% DMSO. After the assay plates were incubated for 2 hrs, 4 μL of 112.5 μM thapsigargin (TG) (DMSO stock diluted into Assay TC Medium) was dispensed into each testing well with a MultiDrop Combi reagent broadcaster for a final concentration of about 15 μM TG. The tissue culture media (4 μL) containing vehicle only was transferred manually to each control cell using a 16 channel electronic pipette. After the plates were incubated overnight (about 16 to 24 hrs), CELLTITER-GLO® (Promega) (16 μL) was added to all wells and luminescence was measured. High luminescence indicates cell survival. The biological results are summarized in Table 1 where A represents a cell viability EC50 less than 1 μM and B represents a value greater than 1 μM and less than 10 μM.

[1] = tested on: Human embryonic kidney (HEK293) cells; Mouse neuroblastoma (N2a) cells; test: Cell rescue assay: protection against thapsigargin (TG)-induced cell-death (ALAMARBLUE); type: cell-based; conditions: compound 20 μM, 2 hrs before thapsigargin (15 μM for HEK293 cells, 1 μM for N2a cells), 24 hrs; viability as % RFU compared to control
Experimental: Protection against Thapsigargin (TG)-induced Cell-death. Human embryonic kidney (HEK293) cells were grown in Dulbecco's Modified Eagle's Medium (DMEM) with 10% FBS and 1% antibiotic antimycotic solution (ABAM). Mouse neuroblastoma (N2a) cells were grown in 1:1 DMEM:OPTI-MEM® with 5% FBS and 1% ABAM. All cells were grown in 10% CO2 in a humidified environment of the incubator. Cells grown in 96-well plates were exposed to a test compound (20 μM) for 2 hrs before addition of thapsigargin (15 μM for HEK293 cells and 1 μM for N2a cells) to induce ER stress. After incubation in cell-culture incubator for 24 hrs, ALAMARBLUE® regent (10% v/v) was added to the wells. Fluorescence reading was taken 2 hrs after the addition of the ALAMARBLUE® regent. Cell-viability was calculated as a percentage of relative fluorescence unit (RFU) compared to control. […] The biological results are summarized in Table 2, where each compound was tested at 20 μM and where A represents a viability greater than 50%, B represents a viability greater than 10% and less than 50%, C represents a value below 10%.

[2] = target: T1, SERCA (microsomal preparations from HEK 293 cells) (Homo sapiens, UniProt P16615); test: Ca-ATPase assay (NADH-linked, enzyme-coupled ATPase assay); type: biochemical; conditions: ATP hydrolysis rate over a range of calcium concentrations, Vmax by fit to Hill function, relative to controls
T1 construct: endogenous in cells; host or cells: HEK 293 cells (microsomal preparation)
Experimental: A Ca-ATPase assay was performed using microsomal preparations from HEK 293 cells at a series of calcium concentrations corresponding to the physiological range, relative to controls. The ATP hydrolysis rate was measured over a range of calcium concentrations in the presence of test compounds using an NADH-linked, enzyme-coupled ATPase assay adapted for 96-well microplates, with Vmax determined by fitting the ATPase calcium-dependence to the Hill function. Each well contained 2 μg or 7 μg of SR vesicles (optimized for skeletal or cardiac SR, respectively), 50 mM MOPS (pH 7.0), 100 mM KCl, 5 mM MgCl2, 1 mM EGTA, 0.2 mM NADH, 1 mM phosphoenol pyruvate, 5 IU pyruvate kinase, 5 IU lactate dehydrogenase, and 3.5 μg/mL A23187 (a calcium ionophore). CaCl2 was added to set free [Ca^2+] to the specific values. The assay was started upon addition of ATP at a final concentration of 5 mM, and read in a SpectraMax Plus microplate spectrophotometer. The results are summarized in Table 4, where A represents an increase in SERCA Vmax greater than 50% and B represents a value greater than 10% and less than 50%.

T1 sequence (P16615 whole entry): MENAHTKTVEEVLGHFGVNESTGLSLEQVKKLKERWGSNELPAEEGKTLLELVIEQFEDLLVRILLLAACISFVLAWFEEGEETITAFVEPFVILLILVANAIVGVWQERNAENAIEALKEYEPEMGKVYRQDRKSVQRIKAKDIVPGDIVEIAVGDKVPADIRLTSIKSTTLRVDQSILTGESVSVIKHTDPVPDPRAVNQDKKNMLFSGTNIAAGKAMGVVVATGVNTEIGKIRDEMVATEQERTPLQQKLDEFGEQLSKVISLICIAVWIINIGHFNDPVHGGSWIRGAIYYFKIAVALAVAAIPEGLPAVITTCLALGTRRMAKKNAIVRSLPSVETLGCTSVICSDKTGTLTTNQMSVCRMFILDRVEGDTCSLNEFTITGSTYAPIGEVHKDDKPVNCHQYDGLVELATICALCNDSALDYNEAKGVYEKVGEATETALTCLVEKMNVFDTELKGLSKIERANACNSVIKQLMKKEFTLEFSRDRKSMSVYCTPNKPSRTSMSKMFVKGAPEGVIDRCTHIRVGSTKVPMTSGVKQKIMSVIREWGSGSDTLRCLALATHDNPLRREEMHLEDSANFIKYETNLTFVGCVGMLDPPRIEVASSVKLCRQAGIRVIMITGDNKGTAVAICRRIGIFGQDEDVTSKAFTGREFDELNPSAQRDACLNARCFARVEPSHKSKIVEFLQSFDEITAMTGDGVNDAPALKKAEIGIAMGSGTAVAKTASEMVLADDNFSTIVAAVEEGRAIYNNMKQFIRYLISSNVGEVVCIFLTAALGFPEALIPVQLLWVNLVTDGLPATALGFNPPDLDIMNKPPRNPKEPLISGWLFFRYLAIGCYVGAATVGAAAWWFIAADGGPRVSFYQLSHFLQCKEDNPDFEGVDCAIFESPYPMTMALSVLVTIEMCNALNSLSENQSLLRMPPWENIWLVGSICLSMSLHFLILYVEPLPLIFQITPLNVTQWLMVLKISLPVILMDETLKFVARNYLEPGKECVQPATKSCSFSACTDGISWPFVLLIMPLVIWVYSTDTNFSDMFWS

| Structure (SMILES) | Cell Survival % (cell rescue) (Human SH-SY5Y cells) | Glucose level reduction (Ob/ob mice) | EC50 (CSM14.1 neuronal cells) [µM] | Cell Survival % [1] | SERCA Vmax Increase [2] |
| --- | --- | --- | --- | --- | --- |
| Cc1ccc2cccc(/C=C/c3ccc(OC(C)C)cc3)c2n1 [A1, (E)-8-(4-Isopropoxystyryl)-2-methylquinoline] | A (A represents a value greater than 50% cell rescue) | C (C represents a greater than 30% reduction in blood glucose levels) | < 1 | A (A represents a viability greater than 50%) | A (A represents an increase in SERCA Vmax greater than 50%) |
| Cc1ccc2cccc(/C=C/c3ccc(Br)s3)c2n1 [A3, (E)-8-(2-(5-Bromothiophen-2-yl)vinyl)-2-methylquinoline] | C (C represents a value greater than 1% and less than 10% cell rescue) | B (B represents a 21-30% reduction in blood glucose) | 1 to 10 | B (B represents a viability greater than 10% and less than 50%) | A (A represents an increase in SERCA Vmax greater than 50%) |
| Cc1ccc2cccc(/C=C/c3cc(Br)cs3)c2n1 [A2, (E)-8-(2-(4-Bromothiophen-2-yl)vinyl)-2-methylquinoline] | B (B represents a value greater than 10% and less than 50% cell rescue) | B (B represents a 21-30% reduction in blood glucose) | < 1 | A (A represents a viability greater than 50%) | A (A represents an increase in SERCA Vmax greater than 50%) |
| Cc1ccc2cccc(/C=C/c3ccc(Cl)cc3)c2n1 [A4, (E)-8-(4-Chlorostyryl)-2-methylquinoline] | B (B represents a value greater than 10% and less than 50% cell rescue) | A (A represents a 10-20% reduction in blood glucose) | < 1 | C (C represents a value below 10%) | B (B represents a value greater than 10% and less than 50%) |
| Cc1ccc2cccc(/C=C/c3cccc(C(F)(F)F)c3)c2n1 [A5, (E)-8-(3-(Trifluoromethyl)styryl)-2-methylquinoline] | B (B represents a value greater than 10% and less than 50% cell rescue) | B (B represents a 21-30% reduction in blood glucose) | 1 to 10 | B (B represents a viability greater than 10% and less than 50%) | A (A represents an increase in SERCA Vmax greater than 50%) |
| Cc1ccc2cccc(/C=C/c3cccc(F)c3)c2n1 [A6, (E)-8-(3-Fluorostyryl)-2-methylquinoline] | A (A represents a value greater than 50% cell rescue) | A (A represents a 10-20% reduction in blood glucose) | 1 to 10 | B (B represents a viability greater than 10% and less than 50%) | B (B represents a value greater than 10% and less than 50%) |
